Earlier results, collected in patent US20130079315A1, “Ophthalmic Gel Compositions” (priority 2011, published 2013).

solubility in water: about 0.008 mg/mL
Compound: CCOC(=O)O[C@]1(C(=O)OCCl)CC[C@H]2[C@@H]3CCC4=CC(=O)C=C[C@]4(C)[C@H]3[C@@H](O)C[C@@]21C [LE, (11β,17α),-7-((Ethoxycarbonyl)oxy)-11-hydroxy-3-oxoandrosta-1,4-diene-17-carboxylic acid chloromethyl ester]
